This is an account of results in patent US9248109B2, “High penetration prodrug compositions of peptides and peptide-related compounds” (priority 2009, dated 2016).

The nature of series [1]: In vitro penetration rate across isolated human skin in modified Franz cells (HPLC). The note with it: parent drugs; at lowest detectable value, considered not detectable.
Procedure: The penetration rates of HPPs/HPCs and their parent drugs through human skin were measured in vitro by modified Franz cells. The Franz cells had two chambers, the top sample chamber and the bottom receiving chamber. The human skin tissue (360-400 p.m thick) that separated the top and the receiving chambers was isolated from the anterior or posterior thigh areas.
A compound tested (2 mL, 20% in 0.2 M phosphate buffer, pH 7.4) was added to the sample chamber of a Franz cell. The receiving chamber contains 10 ml of pH 7.4 phosphate buffer (0.2 M) which was stirred at 600 rpm. The amount of the tested compound penetrating the skin was determined by high-performance liquid chromatography (HPLC) method.
Series [2] relates to mice. Put plainly: Acetic acid writhing inhibition in mice, transdermal. The class given is in vivo, mouse. The note with it: 10 mg/kg transdermally to the neck, acetic acid i.p. 30 minutes later; for rate of writhing inhibition (%): based on the control group; for No. of Writhings: control 35.0. As to the method:
The number of writhings that occurred when mice were administered an acetic acid solution intraperitoneally were counted, and the rate of inhibition based on the control group was calculated. […] 30 minutes later, acetic acid solution was administered. The group A was the control group.
A general note: An intraperitoneal irritant provokes the stretching counted in writhing tests.

For series [3], the system named is Osborne-Mendel rats. The note with it: injected intraperitoneally, rats starved overnight, high-fat diet; cited from earlier work.
For series [4], the system named is rats. The experiment in a line: Solicitation and copulation of rats treated transdermally with HPPs/HPCs of Melanocortin II. The class given is in vivo, rat. The note with it: for increase in copulation comparing to the control group / increase in solicitation comparing to the control group: 2 mg/kg once per day for 5 days; for Increased Copulation / Increased Solicitation: 2 mg/kg on the back once per day for 5 days, control = 1. On the procedure: The same dosage of cyclo(1,6)-Ac-Nle-Asp-His-Phe-Arg(NO2)-Trp-Lys-OCH2CH2N(CH2CH3)2.HCl(SEQ ID NO: 201) (peptide B) was applied to the back of another group of male rats (Group B-1, 30 rats). Rats of a control group were not treated with any drug. […] 6 fold increase in solicitation and 3 fold increase in copulation for Group B-1 in rats were observed comparing to the control group (Table 15).
2 mg/kg peptide A and peptide B in 0.2 ml of pH 7.0 phosphate buffer (0.1M) were applied to the back of both male rats (30 rats) and female rats (30 rates) once per day for 5 days. Rats of a control group were not treated with any drug.

[5] abbreviates: male and female rats treated (Groups A-2, B-2).
Where [6] appears, read: male rats treated (Groups A-1, B-1).

Turning to `CSCC[C@H](NC(=O)[C@H](Cc1ccccc1)NC(=O)CNC(=O)CNC(=O)[C@@H](N)Cc1ccc(O)cc1)C(=O)O` [Met-enkephalin, H-Tyr-Gly-Gly-Phe-Met-OH], the apparent flux value in series [1] was 1 μg/cm^2/h.

On to “Ac-Tyr(Ac)-D-Ala-Gly-Phe-Leu-OCH2CH2N(CH2CH3).HCl”, for which, in series [2], the “rate of writhing inhibition (%)” value is reported as 85% and the “No. of Writhings” value was found to be 5.2.

As to H-Val-Pro-Asp-Pro-Arg OH, in series [3], the “food intake (in words)” value is “dose-dependent reduction in food intake”.

With “HCl.H-Tyr(Ac)-D-Ala-Gly-Phe-Leu-OCH2(CH2)4—CH3 [B]”, in series [2], the “rate of writhing inhibition (%)” value was 75% and the “No. of Writhings” value was found to be 8.6.

HCl.H-Tyr(Ac)-D-Ala-Gly-Phe-Met(O)—OL: in series [2], the “rate of writhing inhibition (%)” value stood at 91% and the “No. of Writhings” value was determined as 3.2.

Turning to “cyclo(1,6)-Ac-Nle-Asp-His-Phe-Arg(diAc)-Trp-Lys-OCH2CH2N(CH2CH3)2.HCl”, the “increase in copulation comparing to the control group” value was determined as 5 fold in series [4] (setting [5]) and 3 fold in series [4] (setting [6]). In addition, the results for the “increase in solicitation comparing to the control group” value in series [4] (setting [5]) and in series [4] (setting [6]) were 6 fold and 5 fold, respectively. Besides, the “Increased Copulation” value in series [4] (male and female rats treated) is given as 5; in series [4] (male rats treated), 3. Moreover, the “Increased Solicitation” value in series [4] (male and female rats treated) amounted to 6; in series [4] (male rats treated), 5.
